# Structures can show the parent of a compound that is named as a salt.
# Columns and labels:
# [1] = system: NCI-H460; experiment: Viability assay with NCI-H460 (CellTiter-Glo cytotoxicity assay, 72 h); format: cell-based; conditions: NCI-H460 cell line, 72 h after compounds addition
# Experimental: (§1) NCI-H460 (Epithelial lung tissue; carcinoma; large cell lung cancer) were cultured in RPMI Medium 1640 (Invitrogen-22400105) supplemented with 10% fetal bovine serum (FBS; Invitrogen-10099141). All the cell lines were maintained in a humidified incubator at 37° C. with 5% CO2. Cell culture media and supplements were purchased from Invitrogen, and tissue culture flasks were purchased from Corning, 96-well plates were purchased from Greiner. CellTiter-Glo Luminescent Cell Viability Assay kits were purchased from Promega (Promega-G7573), cells counter Vi-Cell was purchased from Beckman, D300e digital dispenser was purchased from Tecan, detection instrument Envision was purchased from PerkinElmer.
# (§2) Paclitaxel was purchased from SELLECK, test compounds, such as any one of the compounds disclosed herein, attained solubility in DMSO and when diluted into culture media. DMSO, solutions containing the test compounds, and culture media were warmed to 37° C. or room temperature for the solution preparation and dilutions.
# (§3) NCI-H460 Cell line were seeded in 96-well plates (1200/well) and allowed to adhere to overnight (100 uL/well), for drug treatments with 2 fold dilution, 9 dose points, triplicates or vehicle control, compound stock solutions were prepared in DMSO and use D300e digital dispenser to add compounds to the wells to give the indicated final drug concentrations. Final DMSO concentration was 0.5%. Cellular ATP concentrations were assessed by using the CellTiter-Glo Cell Viability Assay as per the manufacturer's instructions 72 h after compounds addition. Additional cells lines were assayed with any one of the compounds disclosed herein according to the procedures described for the viability assay with NCI-H460.
# [2] = system: MIA PaCa-2; experiment: Viability assay with MIA PaCa-2; format: cell-based; conditions: MIA PaCa-2, viability assay per Example 57
# Experimental: as §1, §2, §3
# A viability assay with MIA PaCa-2 (Epithelial pancreas tissue; carcinoma) was performed with compounds listed in Table 15, according to the procedures described in Example 57.
SMILES,EC50 [1] [µM],EC50 [2] [µM]
CN1CCN(Cc2ccc3c(c2)c(-c2ccc(OC(F)(F)F)cc2)cn3CCCNC(=O)C2(N)CCNCC2)CC1 [C57; HCl],> 30,> 30
NC1(C(=O)NCCCn2cc(-c3ccc(OC(F)(F)F)cc3)c3cc(CN4CCN(Cc5ccccc5OC(F)(F)F)CC4)ccc32)CCNCC1 [C58; Formic acid],≤ 5,≤ 5
COc1ccccc1CN1CCN(Cc2ccc3c(c2)c(-c2ccc(OC(F)(F)F)cc2)cn3CCCNC(=O)C2(N)CCNCC2)CC1 [C59; Formic acid],≤ 5,≤ 5
NC1(C(=O)NCCCn2cc(-c3ccc(OC(F)(F)F)cc3)c3cc(CN4CCN(Cc5ccccc5F)CC4)ccc32)CCNCC1 [C60; Formic acid],≤ 5,≤ 5
NC1(C(=O)NCCCn2cc(-c3ccc(OC(F)(F)F)cc3)c3cc(CN4CCC5(CCN(Cc6c(Cl)cccc6Cl)CC5)C4)ccc32)CCNCC1 [C61; HCl],≤ 5,≤ 5
NC1(C(=O)NCCCn2cc(-c3ccc(OC(F)(F)F)cc3)c3cc(CN4CCN(Cc5ccccc5Cl)CC4)ccc32)CCNCC1 [C62; HCl],≤ 5,≤ 5
NC1(C(=O)NCCCn2cc(-c3ccc(OC(F)(F)F)cc3)c3cc(CN4CCN(Cc5ccccc5C(F)(F)F)CC4)ccc32)CCNCC1 [C63; HCl],≤ 5,≤ 5
NC1(C(=O)NCCn2cc(-c3ccc(OC(F)(F)F)cc3)c3cc(CN4CCN(Cc5c(Cl)cccc5Cl)CC4)ccc32)CCNCC1 [C64; HCl],≤ 5,≤ 5
NC1(C(=O)NCCCn2cc(-c3ccc(OC(F)(F)F)cc3)c3cc(CN4CC5(CCN(Cc6c(Cl)cccc6Cl)CC5)C4)ccc32)CCNCC1 [C65; HCl],≤ 5,≤ 5
N#Cc1ccccc1CN1CCN(Cc2ccc3c(c2)c(-c2ccc(OC(F)(F)F)cc2)cn3CCCNC(=O)C2(N)CCNCC2)CC1 [C66; HCl],≤ 5,≤ 5
NC1(C(=O)NCCCn2cc(-c3ccc(OC(F)(F)F)cc3)c3cc(CN4CCC5(CC4)CCN(Cc4c(Cl)cccc4Cl)CC5)ccc32)CCNCC1 [C67; Formic acid],≤ 5,≤ 5
NC1(C(=O)NCCCn2cc(-c3ccc(OC(F)(F)F)cc3)c3cc(CN4CCCC5(CCN(Cc6c(Cl)cccc6Cl)CC5)C4)ccc32)CCNCC1 [C68; Formic acid],≤ 5,≤ 5
NC1(C(=O)NCCCn2cc(-c3ccc(OC(F)(F)F)cc3)c3cc(CN4CC5CCC4CN5Cc4c(Cl)cccc4Cl)ccc32)CCNCC1 (centres unmarked) [C69; HCl],≤ 5,≤ 5
NC1(C(=O)NCCCn2cc(-c3ccc(OC(F)(F)F)cc3)c3cc(CN4CC5CN(Cc6c(Cl)cccc6Cl)CC5C4)ccc32)CCNCC1 (centres unmarked) [C70; HCl],≤ 5,≤ 5
Cc1ccccc1CN1CCN(Cc2ccc3c(c2)c(-c2ccc(OC(F)(F)F)cc2)cn3CCCNC(=O)C2(N)CCNCC2)CC1 [C71; HCl],≤ 5,≤ 5
NC1(C(=O)NCCCn2cc(-c3ccc(OC(F)(F)F)cc3)c3cc(CN4CCN(Cc5ccccc5)CC4)ccc32)CCNCC1 [C72; HCl],≤ 5,≤ 5
CC(C)(C)OC(=O)N1CCC(N)(C(=O)NCCCc2cn(-c3ccc(OC(F)(F)F)cc3)c3cc(CN4CCN(Cc5c(Cl)cccc5Cl)CC4)ccc23)CC1 [C73; Formic acid],≤ 5,≤ 5
O=C(NCCCc1cn(-c2ccc(OC(F)(F)F)cc2)c2cc(CN3CCN(Cc4c(Cl)cccc4Cl)CC3)ccc12)C1CNCCN1 (centres unmarked) [C74; HCl],≤ 5,≤ 5
NC1(C(=O)NCCCc2cn(-c3ccc(OC(F)(F)F)cc3)c3cc(CN4CCN(Cc5c(Cl)cccc5Cl)CC4)ccc23)CCNCC1 [C75; HCl],≤ 5,≤ 5

SMILES,EC50 [1] [µM],EC50 [2] [µM]
NC1(C(=O)NCCCn2cc(-c3ccc(OC(F)(F)F)cc3)c3cc(CN4CCC5(CC4)CN(Cc4c(Cl)cccc4Cl)C5)ccc32)CCNCC1 [C76; HCl],5 to 10,≤ 5
NC1(C(=O)NCCCn2cc(-c3ccc(OC(F)(F)F)cc3)c3cc(CN4CC5CC4CN5Cc4c(Cl)cccc4Cl)ccc32)CCNCC1 (centres unmarked) [C77; HCl],≤ 5,≤ 5
NC1(C(=O)NCCCn2cc(-c3ccc(OC(F)(F)F)cc3)c3cc(CN4CCCN(Cc5c(Cl)cccc5Cl)CC4)ccc32)CCNCC1 [C78; HCl],≤ 5,≤ 5
NC1(C(=O)NCCCn2cc(-c3ccc(OC(F)(F)F)cc3)c3cc(CNC4C5CN(Cc6c(Cl)cccc6Cl)CC54)ccc32)CCNCC1 (centres unmarked) [C79; Formic acid],≤ 5,≤ 5
NC1(C(=O)NCCCc2cn(-c3ccc(OC(F)(F)F)cc3)c3cc(C(=O)N4CCN(Cc5c(Cl)cccc5Cl)CC4)ccc23)CCNCC1 [C80; HCl],≤ 5,≤ 5
NCC(N)C(=O)NCCCn1cc(-c2ccc(OC(F)(F)F)cc2)c2cc(CN3CCN(Cc4c(Cl)cccc4Cl)CC3)ccc21 (centres unmarked) [C81; HCl],≤ 5,≤ 5
NC1(C(=O)NCCCn2cc(-c3ccc(OC(F)(F)F)cc3)c3cc(CN4CCN(Cc5c(Cl)cccc5Cl)CC4)ccc32)CCCCC1 [C82; HCl],≤ 5,≤ 5
NC1(C(=O)NCCCn2cc(-c3ccc(OC(F)(F)F)cc3)c3cc(CN4CC5C(C4)C5NCc4c(Cl)cccc4Cl)ccc32)CCNCC1 (centres unmarked) [C85; HCl],≤ 5,≤ 5
NC1(C(=O)NCCCn2cc(-c3ccc(OC(F)(F)F)cc3)c3cc(CN4CC5CCC(C4)N5Cc4c(Cl)cccc4Cl)ccc32)CCNCC1 [C86; Formic acid],≤ 5,≤ 5
NCCCc1cn(-c2ccc(OC(F)(F)F)cc2)c2cc(CN3CCN(Cc4c(Cl)cccc4Cl)CC3)ccc12 [C87; Formic acid],≤ 5,≤ 5
CC(C)(C)OC(=O)NCCCc1cn(-c2ccc(OC(F)(F)F)cc2)c2cc(CN3CCN(Cc4c(Cl)cccc4Cl)CC3)ccc12 [C88; Formic acid],> 30,> 30
COc1ccc(CN2CCNC(C(=O)NCCCn3cc(-c4ccc(OC(F)(F)F)cc4)c4cc(CN5CCN(Cc6c(Cl)cccc6Cl)CC5)ccc43)C2)cc1OCc1ccc(Cl)c(Cl)c1 (centres unmarked) [C89; Formic acid],5 to 10,5 to 10
O=C(NCCCn1cc(-c2ccc(OC(F)(F)F)cc2)c2cc(CN3CCN(Cc4c(Cl)cccc4Cl)CC3)ccc21)C1CNCCN1 (centres unmarked) [C90; HCl],≤ 5,≤ 5
O=C(NCCCn1cc(-c2ccc(OC(F)(F)F)cc2)c2cc(CN3CCN(Cc4c(Cl)cccc4Cl)CC3)ccc21)C1(NCc2cccnc2-c2cccc(Cl)c2)CCNCC1 [C114; HCl],≤ 5,≤ 5
"NCCCn1cc(-c2ccccc2CCN)c2cc(CN3CCN(Cc4ccccc4Cl)CC3)ccc21 [C131, HCl]",≤ 5,≤ 5
NCCCn1cc(-c2ccccc2CN)c2cc(CN3CCN(Cc4c(Cl)cccc4Cl)CC3)ccc21 [C161; HCl],≤ 5,≤ 5
NC1(C(=O)NCCCn2cc(-c3ccc(OC(F)(F)F)cc3)c3cc(CN4CCN(Cc5c(Cl)cccc5Cl)CC4)cnc32)CCNCC1 [C174; HCl],≤ 5,≤ 5
CC(C)(C)OC(=O)N1CCC(N)(C(=O)NCCCn2cc(-c3ccc(OC(F)(F)F)cc3)c3cc(CN4CCN(Cc5c(Cl)cccc5Cl)CC4)cnc32)CC1 [C175; Formic Acid],≤ 5,5 to 10
